Reference: patent US4661505A, “Leukotriene antagonists” (Eli Lilly and Company, priority 1982, dated 1987)

Assays:
Type in all cases: cell-based
[1] = target: T1, LTD4 evoked ileal contractions (Cavia porcellus, UniProt Q2NNR5); assay: Antagonism of LTD4-evoked contraction of isolated guinea pig ileum (single concentration); conditions: pure LTD4, 5 minute exposure, read-out: Percent Inhibition of LTD4 evoked ileal contractions; for inhibition at 1 µM: 1 × 10^-6 M; for inhibition at 3 µM: 3 × 10^-6 M; for inhibition at 10 µM: 1 × 10^-5 M
T1 construct: A section of terminal ileum was removed, the lumen cleaned, and the tissue divided into 2.5 cm. segments; from tissue; host or cells: terminal ileum of male Hartley guinea pigs
T1 sequence (Q2NNR5 1-340): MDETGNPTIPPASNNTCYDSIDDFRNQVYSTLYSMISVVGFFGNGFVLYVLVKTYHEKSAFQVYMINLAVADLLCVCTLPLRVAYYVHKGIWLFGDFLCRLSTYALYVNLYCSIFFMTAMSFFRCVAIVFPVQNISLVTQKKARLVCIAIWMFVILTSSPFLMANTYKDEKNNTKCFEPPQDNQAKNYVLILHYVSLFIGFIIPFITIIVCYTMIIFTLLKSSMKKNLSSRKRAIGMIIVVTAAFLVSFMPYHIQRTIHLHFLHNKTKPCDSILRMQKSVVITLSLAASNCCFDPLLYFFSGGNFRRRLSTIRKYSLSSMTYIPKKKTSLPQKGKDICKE
Procedure: (§1) Male, Hartley guinea pigs weighing 200-450 grams were killed by decapitation. A section of terminal ileum was removed, the lumen cleaned, and the tissue divided into 2.5 cm. segments. The ilea were mounted in 10 ml. tissue baths containing Krebs-bicarbonate solution of the following composition in mmoles/liter: KCl, 4.6; CaCl2.2H2 O, 1.2; KH2 PO4, 1.2; MgSO4.7H2 O, 1.2; NaCl, 118.2; NaHCO3, 24.8 and dextrose, 10.0. The bath fluid was maintained at 37° C. and aerated with 95 percent oxygen and 5 percent CO2. In addition, the buffer contained 1×10^-6 M atropine to reduce ileal spontaneous activity. In studies with crude SRS-A, 1×10^-6M pyrilamine was used to mitigate the actions of histamine present along with the biologically active leukotrienes. Isometric measurements were made with a Grass FTO3C force-displacement transducer and recorded on a Grass polygraph as change in grams of force. A passive force of 0.5 g. was applied to the tissues. After an appropriate equilibration period, single submaximal control responses to either SRS-A or pure LTD4 were obtained. Following a 5 minute exposure of the ileum to an experimental drug, the control concentration of SRS-A or LTD4 was added to the tissue bath. The response of the ileum to SRS-A or LTD4 in the presence of the drug was compared to the response in the absence of the drug.
(§2) *Compounds marked with an asterisk were tested using crude SRSA as the
(§3) ileumcontracting agent; all other compounds were tested using pure

[2] = target: T1, LTD4 evoked ileal contractions; assay: LTD4 antagonism, cumulative concentration-response curves in guinea pig ileum and trachea (pA2); conditions: 30 minute incubation with antagonist, Furchgott method
Procedure: For some of the drugs in this series a more detailed analysis of LTD4 antagonism was made. In these experiments, cumulative concentration-response curves were obtained to LTD4 in guinea pig ileum and trachea. This was followed by a 30 minute incubation with various concentrations of the experimental drug. The concentration response curve to LTD4 was then repeated in the presence of the antagonist. Only one concentration of antagonist was used on a single tissue. KB values were calculated by the method of Furchgott [Ann. N.Y. Acad. Sci., 139, 553 (1967)]using the following equation. [formula] Dose ratio refers to the concentration of agonist required to elicit 50 percent of the maximal response (ED50) in the presence of the antagonist divided by the ED50 in the absence of the antagonist. Calculations were performed with the aid of a computer and a digital plotter.

[3] = test system: SRS-A evoked ileal contractions; assay: Antagonism of crude SRS-A-evoked contraction of isolated guinea pig ileum (single concentration); conditions: Cavia porcellus, 5 min, 5 minute exposure, pyrilamine 1×10^-6 M, read-out: Percent Inhibition of SRS-A evoked ileal contractions; for inhibition at 3 µM: 3 × 10^-6 M
Procedure: as §1, §2, §3

inhibition at 1 µM [1] | inhibition at 3 µM [1] | Kb [2] | inhibition at 10 µM [1] | SMILES | inhibition at 10 µM ([3]; 1 × 10^-5 M) | inhibition at 3 µM [3]
87% | 100% | 79.4 nM |  | CCCc1c(OCCCCCCc2nnn[nH]2)ccc(C(C)=O)c1O [Example 9, 5-[6-(4-Acetyl-3-hydroxy-2-propylphenoxy)hexyl]-tetrazole] |  | 
92% | 95% | 79.4 nM |  | CCCc1c(OCCCCCCCc2nnn[nH]2)ccc(C(C)=O)c1O [Example 10, 5-[7-(4-Acetyl-3-hydroxy-2-propylphenoxy)heptyl]-tetrazole] |  | 
89% | 100% | 316 nM |  | CCCc1c(OCCCCCCCCc2nnn[nH]2)ccc(C(C)=O)c1O [Example 11, 5-[8-(4-Acetyl-3-hydroxy-2-propylphenoxy)octyl]-tetrazole] |  | 
78% | 90% | 316 nM |  | CCCc1c(OCCCCCCCCCc2nnn[nH]2)ccc(C(C)=O)c1O [Example 12, 5-[9-(4-Acetyl-3-hydroxy-2-propylphenoxy)nonyl]-tetrazole] |  | 
76% | 93% | 316 nM |  | CCCc1c(OCCCCCCCCCCc2nnn[nH]2)ccc(C(C)=O)c1O [Example 13, 5-[10-(4-Acetyl-3-hydroxy-2-propylphenoxy)decyl]-tetrazole] |  | 
 |  |  |  | CCCc1c(OC(CCCCC(=O)O)c2ccc(-c3ccccc3)cc2)ccc(C(C)=O)c1O (stereo not drawn) [Example 17, 6-(4-Acetyl-3-hydroxy-2-propylphenoxy)-6-(4-biphenyl)hexanoic acid] | 44% | 
 |  |  |  | CC(=O)c1ccc(OC(CCCCC(=O)O)c2ccccc2)cc1O (stereo not drawn) [Example 20, 6-(4-Acetyl-3-hydroxyphenoxy)-6-phenyl-hexanoic acid] |  | 20%
 | 87% | 263 nM |  | CCCc1c(OCCCCCc2nnn[nH]2)ccc(C(C)=O)c1O [Example 22, 5-[5-(4-Acetyl-3-hydroxy-2-propylphenoxy)pentyl]-tetrazole] |  | 
 | 81% | 398 nM |  | CCCc1c(OCCCCCC(=O)O)ccc(C(C)=O)c1O [Example 24, 6-(4-Acetyl-3-hydroxy-2-propylphenoxy)hexanoic acid] |  | 
 |  |  |  | CC(=O)c1ccc(OCCCCCC(=O)O)cc1O [Example 25, 6-(4-Acetyl-3-hydroxyphenoxy)hexanoic acid] |  | 11%
 |  | 1580 nM |  | CCCc1c(OCCCCC(=O)O)ccc(C(C)=O)c1O [Example 28, 5-(4-Acetyl-3-hydroxy-2-propylphenoxy)pentanoic acid] |  | 61%
51% |  | 2000 nM | 94% | CCCc1c(OCCCCCCCCC(=O)O)ccc(C(C)=O)c1O [Example 31, 9-(4-Acetyl-3-hydroxy-2-propylphenoxy)nonanoic acid] |  | 
 | 56% | 794 nM | 88% | CCCc1c(OCCCCCC(=O)O)ccc(C(=O)CC)c1O [Example 34, 6-(4-Propionyl-3-hydroxy-2-propylphenoxy)hexanoic acid] |  | 
 | 45% | 1580 nM | 79% | CCCc1c(OC(C)CCCCC(=O)O)ccc(C(C)=O)c1O (stereo not drawn) [Example 40, 6-(4-Acetyl-3-hydroxy-2-propylphenoxy)heptanoic acid] |  | 
87% |  | 100 nM |  | CCCc1c(OCCCCSc2nn[nH]n2)ccc(C(C)=O)c1O [Example 57, 5-[4-(4-Acetyl-3-hydroxy-2-propylphenoxy)butanethio]-tetrazole] |  | 
47% |  | 1120 nM |  | CCCc1c(OCCSc2nn[nH]n2)ccc(C(C)=O)c1O [Example 58, 5-[2-(4-Acetyl-3-hydroxy-2-propylphenoxy)ethanethio]-tetrazole] |  | 
95% |  | 31.6 nM |  | CCCc1c(OCCCSc2nn[nH]n2)ccc(C(C)=O)c1O [Example 59, 5-[3-(4-Acetyl-3-hydroxy-2-propylphenoxy)propanethio]-tetrazole] |  | 
82% |  | 158 nM | 100% | CCCc1c(OCCCCCSc2nn[nH]n2)ccc(C(C)=O)c1O [Example 68, 5-[5-(4-Acetyl-3-hydroxy-2-propylphenoxy)pentanethio]-tetrazole] |  | 
50% |  | 501 nM | 100% | CCCc1c(OCCCCCCCCSc2nn[nH]n2)ccc(C(C)=O)c1O [Example 73, 5-[8-(4-Acetyl-3-hydroxy-2-propylphenoxy)octanethio]-tetrazole] |  | 
